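Cultured in 96-well plates, cells were exposed to test compound for 48 hours across five concentrations. GI50: concentration for 50% inhibition of growth.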 Activity calls are given as the source filed them. No stated cut-off is given here; in the data, active = GI50 up to about 1.1 µM and inactive = higher. Where a SMILES comes first, the peptide text is derived from it. [ ]: non-standard residue; d: D form. The star is where a group is joined. ξ: configuration not given here. X4 = COc1ccc(C(N*)c2ccc(OC)cc2)cc1; NMeF = CN[C@@H](Cc1ccccc1)C(=O)O; NMeD = CN[C@@H](CC(=O)O)C(=O)O; NMeV = CN[C@H](C(=O)O)C(C)C; ξNMeV = CNC(C(=O)O)C(C)C; Boc = CC(C)(C)OC(=O)*; ξNMeA = CNC(C)C(=O)O; ξV = CC(C)C(N)C(=O)O
Columns and labels:
Test in all cases: NCI tumour cell line growth inhibition, 48 h
SR = test system: SR
Malme-3M = test system: Malme-3M
MCF7 = test system: MCF7
NCI-H460 = test system: NCI-H460
KM12 = test system: KM12
LOX IMVI = test system: LOX IMVI
SK-OV-3 = test system: SK-OV-3
PC-3 = test system: PC-3
OVCAR-4 = test system: OVCAR-4
Hs-578T = test system: Hs-578T
TK-10 = test system: TK-10
UACC-62 = test system: UACC-62
SW-620 = test system: SW-620
NCI-H522 = test system: NCI-H522
NCI-H226 = test system: NCI-H226
HOP-92 = test system: HOP-92
OVCAR-5 = test system: OVCAR-5
HOP-62 = test system: HOP-62
HT-29 = test system: HT-29
SK-MEL-2 = test system: SK-MEL-2

Measured: GI50

C=CCSc1nc2ccccc2c(=O)n1Cc1ccco1
inactive: SR 47 µM | Malme-3M > 100 µM | MCF7 52.2 µM | NCI-H460 73.5 µM | KM12 > 100 µM | LOX IMVI > 100 µM | SK-OV-3 > 100 µM | PC-3 > 100 µM | OVCAR-4 80.5 µM | Hs-578T > 100 µM | TK-10 > 100 µM | UACC-62 > 100 µM | SW-620 > 100 µM | NCI-H522 61.8 µM | NCI-H226 > 100 µM | HOP-92 86.3 µM | OVCAR-5 > 100 µM | HOP-62 > 100 µM | HT-29 50.1 µM | SK-MEL-2 > 100 µM

Cn1c(NNc2ccccc2)cc(=O)[nH]c1=O
inactive: SR 22.6 µM | Malme-3M 57.8 µM | MCF7 33.8 µM | NCI-H460 51.9 µM | KM12 15.2 µM | LOX IMVI 20 µM | SK-OV-3 72.6 µM | PC-3 38.6 µM | OVCAR-4 55.8 µM | Hs-578T > 100 µM | TK-10 > 100 µM | UACC-62 36.1 µM | SW-620 62.1 µM | NCI-H522 19.1 µM | NCI-H226 > 100 µM | HOP-92 63.8 µM | OVCAR-5 > 100 µM | HOP-62 > 100 µM | HT-29 86.9 µM | SK-MEL-2 3.63 µM

COc1ccc(C(NC(=O)C[C@@H](C(=O)N(C)C(C)C(=O)O)N(C)C(=O)[C@@H]2CCCN2C(=O)[C@H](C(C)C)N(C)C(=O)C(C(C)C)N(C)C(=O)[C@H](Cc2ccccc2)N(C)C(=O)C(NC(=O)OC(C)(C)C)C(C)C)c2ccc(OC)cc2)cc1 (stereo not given in full) (Boc-[ξV][NMeF][ξNMeV][NMeV]P[NMeD](X4)[ξNMeA]-OH)
inactive: SR 15.6 µM | Malme-3M 14.4 µM | MCF7 16.1 µM | NCI-H460 24.5 µM | KM12 7.18 µM | LOX IMVI 7.66 µM | SK-OV-3 > 37.5 µM | PC-3 13.7 µM | OVCAR-4 17.5 µM | Hs-578T 2.56 µM | TK-10 23.7 µM | UACC-62 6.73 µM | SW-620 8.18 µM | NCI-H522 11.5 µM | NCI-H226 7.64 µM | HOP-92 8.26 µM | OVCAR-5 > 37.5 µM | HOP-62 13.4 µM | HT-29 16.2 µM | SK-MEL-2 7.74 µM

CCOC(=O)/C(C(N)=O)=C(O)/C(O)=C(\Br)C(=O)c1ccccc1
inactive: SR 3.68 µM | Malme-3M 15.1 µM | MCF7 17.7 µM | NCI-H460 24.8 µM | KM12 18.1 µM | LOX IMVI 15.6 µM | SK-OV-3 26.2 µM | PC-3 17.4 µM | OVCAR-4 22 µM | Hs-578T 20.4 µM | TK-10 19 µM | UACC-62 17.8 µM | SW-620 9.66 µM | NCI-H522 1.72 µM | NCI-H226 19.5 µM | HOP-92 19.9 µM | OVCAR-5 19.4 µM | HOP-62 20.5 µM | HT-29 25.9 µM | SK-MEL-2 18.9 µM

NS(=O)(=O)c1ccc(/N=N/c2cc3ccccc3c(C(=O)O)c2O)cc1
inactive: SR 2.31 µM | Malme-3M > 56.9 µM | MCF7 2.68 µM | NCI-H460 10.5 µM | KM12 5.18 µM | LOX IMVI > 54.5 µM | SK-OV-3 > 66.4 µM | PC-3 > 48.3 µM | OVCAR-4 > 46.5 µM | Hs-578T > 67.3 µM | TK-10 > 47.4 µM | UACC-62 > 55.7 µM | SW-620 > 41.8 µM | NCI-H522 > 41 µM | NCI-H226 > 100 µM | HOP-92 99.1 µM | OVCAR-5 > 54.3 µM | HOP-62 > 59.2 µM | HT-29 > 55.7 µM | SK-MEL-2 > 45.1 µM

CCOC(=O)n1ccc2c(C(=O)OC)c(C(=O)OC)cc(/C(=C/C(=O)OC)C(=O)OC)c21
inactive: SR 79.8 µM | Malme-3M > 100 µM | MCF7 > 100 µM | NCI-H460 > 100 µM | KM12 > 100 µM | LOX IMVI > 100 µM | SK-OV-3 > 100 µM | PC-3 > 100 µM | OVCAR-4 > 100 µM | Hs-578T > 100 µM | TK-10 > 100 µM | UACC-62 82.2 µM | SW-620 > 100 µM | NCI-H522 57.1 µM | NCI-H226 > 100 µM | HOP-92 34.3 µM | OVCAR-5 > 100 µM | HOP-62 > 100 µM | HT-29 > 100 µM | SK-MEL-2 > 100 µM

O=C1NC(Cc2ccc(O)cc2)C(=O)NC1Cc1ccc(O)cc1 (stereo not given)
inactive: SR > 100 µM | Malme-3M > 100 µM | MCF7 > 100 µM | NCI-H460 > 100 µM | KM12 > 100 µM | LOX IMVI > 100 µM | SK-OV-3 > 100 µM | PC-3 > 100 µM | OVCAR-4 > 100 µM | Hs-578T > 100 µM | TK-10 > 100 µM | UACC-62 > 100 µM | SW-620 > 100 µM | NCI-H522 > 100 µM | NCI-H226 > 100 µM | HOP-92 > 100 µM | OVCAR-5 > 100 µM | HOP-62 > 100 µM | HT-29 > 100 µM | SK-MEL-2 > 100 µM

Cc1ccc2occ/c(=N\Nc3ccccc3)c2c1
inactive: SR 37.8 µM | Malme-3M 29.5 µM | MCF7 40.2 µM | NCI-H460 56.9 µM | KM12 12.7 µM | LOX IMVI 66.2 µM | SK-OV-3 59.6 µM | PC-3 63.1 µM | OVCAR-4 13.2 µM | Hs-578T 65.3 µM | TK-10 > 100 µM | UACC-62 > 100 µM | SW-620 > 100 µM | NCI-H522 84.7 µM | NCI-H226 29.9 µM | HOP-92 19.5 µM | OVCAR-5 59.4 µM | HOP-62 32.6 µM | HT-29 23.9 µM | SK-MEL-2 > 100 µM

CC(C)(C)c1nc2c(o1)/C(=N\c1ccc(F)cc1)c1ccccc1C2=O
inactive: SR > 43.5 µM | Malme-3M 1.97 µM | MCF7 4.13 µM | NCI-H460 5.74 µM | KM12 7.78 µM | LOX IMVI 2.56 µM | SK-OV-3 22.1 µM | PC-3 5.41 µM | OVCAR-4 28.8 µM | Hs-578T 6.68 µM | TK-10 35.7 µM | UACC-62 2.55 µM | SW-620 4.27 µM | NCI-H522 5.36 µM | NCI-H226 16.9 µM | HOP-92 > 72.3 µM | OVCAR-5 14.6 µM | HOP-62 15.9 µM | HT-29 17.6 µM | SK-MEL-2 2.67 µM

O=C1NC(=O)C(c2c[nH]c3cc(Br)ccc23)=C1c1cn(C(c2ccccc2)(c2ccccc2)c2ccccc2)cn1
inactive: SR 6.64 µM | Malme-3M 19.5 µM | MCF7 10.8 µM | NCI-H460 11.1 µM | KM12 9.23 µM | LOX IMVI 15.1 µM | SK-OV-3 28.6 µM | PC-3 6.19 µM | OVCAR-4 26.5 µM | Hs-578T 22.4 µM | TK-10 16.2 µM | UACC-62 18.2 µM | SW-620 15.7 µM | NCI-H522 13.3 µM | NCI-H226 3.38 µM | HOP-92 13.9 µM | OVCAR-5 17.5 µM | HOP-62 24.7 µM | HT-29 9.48 µM | SK-MEL-2 11.2 µM

Source: ChEMBL document CHEMBL1201862, “PubChem BioAssay data set” (2004)
